From patent publication US20110190336A1, “AZABENZIMIDAZOLONES” (CARA THERAPEUTICS, INC., priority 2008, published 2011)

Each compound was assayed against T1, human DP2 receptor (Homo sapiens, UniProt Q9Y5Y4) (assay: Prostaglandin D2 binding inhibition assay (scintillation proximity assay, 3H PGD2, membranes of transfected CHO cells)). Conditions: SPA, 5.5 nM 3H PGD2, CHO-K1 FLP-In human DP2 membranes; upper limit determinable 30 μM; read-out: IC50 ranges for inhibition of PGD2 binding to human DP2.
T1 construct: expressed in transfected cells; host or cells: CHO-K1 FLP-In (Invitrogen, catalog no. R758-07), stably transfected
T1 sequence (Q9Y5Y4 1-395): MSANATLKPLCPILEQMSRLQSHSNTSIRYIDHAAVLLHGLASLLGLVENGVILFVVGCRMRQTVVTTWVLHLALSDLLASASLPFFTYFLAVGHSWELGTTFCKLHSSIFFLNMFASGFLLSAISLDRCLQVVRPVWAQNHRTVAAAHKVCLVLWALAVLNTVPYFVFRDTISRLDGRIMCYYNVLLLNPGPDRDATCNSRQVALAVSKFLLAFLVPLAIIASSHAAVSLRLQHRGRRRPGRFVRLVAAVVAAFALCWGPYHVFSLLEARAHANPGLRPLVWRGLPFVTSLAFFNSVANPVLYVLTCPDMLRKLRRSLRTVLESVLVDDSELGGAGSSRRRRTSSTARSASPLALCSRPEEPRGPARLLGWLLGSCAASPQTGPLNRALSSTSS
Method: The ability of compounds to inhibit binding of prostaglandin D2 (PGD2) to the human DP2 receptor was measured using a scintillation proximity assay (SPA). Chinese Hamster Ovary FLP-In cell lines (CHO-K1 FLP-In, Invitrogen, catalog no. R758-07) were stably transfected with the human DP2 gene (Genebank: AY507142). Cell lines were grown in suspension in EX-CELL 302 CHO Serum-free medium (Sigma, catalog no. 14324C) supplemented with 1% Fetal Bovine Serum (Invitrogen no. 10099-141), 2 mM L-glutamine (Invitrogen, catalog no. 25030-081) and 0.5 mg/ml Hygromycin B (Invitrogen, catalog no. 10687-010). Cells were collected by centrifugation in a Beckman Coulter Allegra X-12R centrifuge at 150×g for 5 minutes at room temperature.
Membranes from transfected cells were isolated for binding assays. Cell pellets containing approximately 2×10^9 cells were resuspended in 35 ml of cold membrane homogenization buffer (10 mM Tris (Sigma, catalog no. T2663), 1 mM EDTA (Fluka BioChemika no. 03690), and 70 μl of protease inhibitor cocktail (Sigma, catalog no. P8340)). Cells were homogenized with 30 strokes of a dounce homogenizer (Kontes, catalog no. 885303-0040), and the solution centrifuged at 200×g for 10 minutes. The supernatant was transferred to a 50 ml Oakridge tube (Beckman, catalog no. 357000) and centrifuged in a Beckman Coulter Avanti J-26×PI centrifuge with a JA30.50 rotor at 81,000×g for 1 hour at 15° C. The pellet was resuspended in membrane storage buffer (50 mM Tris (Sigma, catalog no. T2663), 2.5 mM EDTA (Fluka BioChemika no. 03690), 5 mM magnesium chloride (Sigma, catalog no. M1028), 100 mg/ml sucrose (Sigma, catalog no. 50389) and a 1:500 dilution of protease inhibitor cocktail (Sigma, catalog no. P8340)) and the total protein was quantitated using a BCA protein measurement kit (Pierce, catalog no. 23225). Aliquots were frozen at −80° C. until used. Compounds were tested for their ability to inhibit PGD2 binding to the purified membranes. 5 μg of the purified membranes, 0.25 mg of wheat germ agglutinin PVT SPA beads (GE Healthcare, catalog no. RPNQ0060) and 5.5 nM of ^3H PGD2 (PerkinElmer, catalog no. NET-616) were mixed in assay buffer ((50 mM Tris (Sigma, catalog no. T2663), 10 mM magnesium chloride (Sigma, catalog no. M1028), 100 mM sodium chloride (Sigma, catalog no. S6546) and 0.1% bovine serum albumin (Sigma, catalog no. A2153)). Using a Multidrop bulk dispenser, 75 μl of the assay mixture was dispensed in Optiplates (PerkinElmer, catalog no. 6007299) containing the compounds to be tested. After a 60 minute incubation period at room temperature, the plates were read on a PerkinElmer Topcount NXT HTS, and individual wells were quantitated as counts per minute (CPM). Data were expressed as a percent of the difference between the maximum and minimum responses. IC50 values (the concentration of compound producing 50% of the maximal response) were determined using a two-parameter non-linear regression algorithm analyzed using CambridgeSoft Bioassay software. Table 2 gives the range of IC50 values for claimed compounds in the binding assay.

Compared with `O=C(O)Cn1c(=O)n(C2CCN(S(=O)(=O)c3ccccc3C(F)(F)F)CC2)c2ncccc21` [Compound 85, 2-(2-oxo-3-(1-(2-(trifluoromethyl)phenylsulfonyl)piperidin-4-yl)-2,3-dihydro-1H-imidazo[4,5-b]pyridin-1-yl)acetic acid], `O=C(O)Cn1c(=O)n(C2CCN(S(=O)(=O)c3ccccc3)CC2)c2ncccc21` [Compound 79, 2-(2-oxo-3-(1-(phenylsulfonyl)piperidin-4-yl)-2,3-dihydro-1H-imidazo[4,5-b]pyridin-1-yl)acetic acid] is higher in IC50: under 1 µM for the first, 1 to 10 µM for the second. The first is the more potent here.

`Cc1ccc(S(=O)(=O)N2CCC(n3c(=O)n(CC(=O)O)c4c(C)ccnc43)CC2)c(F)c1` [Compound 118, 2-(3-(1-(2-fluoro-4-methylphenylsulfonyl)piperidin-4-yl)-7-methyl-2-oxo-2,3-dihydro-1H-imidazo[4,5-b]pyridin-1-yl)acetic acid] and `Cc1cc(F)ccc1S(=O)(=O)N1CCC(n2c(=O)n(CC(=O)O)c3c(C)ccnc32)CC1` [Compound 119, 2-(3-(1-(4-fluoro-2-methylphenylsulfonyl)piperidin-4-yl)-7-methyl-2-oxo-2,3-dihydro-1H-imidazo[4,5-b]pyridin-1-yl)acetic acid] cannot be ordered by IC50: over 30 µM for the first, over 30 µM for the second.

`CS(=O)(=O)c1ccccc1S(=O)(=O)N1CCC(n2c(=O)n(CC(=O)O)c3ncccc32)CC1` [Compound 135, 2-(1-(1-(2-(methylsulfonyl)phenyl-sulfonyl)piperidin-4-yl)-2-oxo-1H-imidazo[4,5-b]pyridin-3(2H)-yl)acetic acid] and `Cc1cnc2c(c1)n(CC(=O)O)c(=O)n2C1CCN(S(=O)(=O)c2ccccc2S(C)(=O)=O)CC1` [Compound 123, 2-(6-methyl-3-(1-(2-(methylsulfonyl)phenylsulfonyl)piperidin-4-yl)-2-oxo-2,3-dihydro-1H-imidazo[4,5-b]pyridin-1-yl)acetic acid] cannot be ordered by IC50: over 30 µM for the first, over 30 µM for the second.

`O=C(O)Cn1c(=O)n(C2CCN(S(=O)(=O)c3ccc(Cl)cc3F)CC2)c2ncccc21` [Compound 30, 2-(3-(1-(4-chloro-2-fluorophenylsulfonyl)piperidin-4-yl)-2-oxo-2,3-dihydro-1H-imidazo[4,5-b]pyridin-1-yl)acetic acid] and `O=C(O)Cn1c(=O)n(C2CCN(S(=O)(=O)c3ccc(Br)cc3F)CC2)c2ncccc21` [Compound 87, 2-(3-(1-(4-bromo-2-fluorophenyl-sulfonyl)piperidin-4-yl)-2-oxo-2,3-dihydro-1H-imidazo[4,5-b]pyridin-1-yl)acetic acid] cannot be ordered by IC50: under 1 µM for the first, under 1 µM for the second.

`N#Cc1ccc(S(=O)(=O)N2CCC(n3c(=O)n(CC(=O)O)c4cccnc43)CC2)cc1` [Compound 61, 2-(3-(1-(4-cyanophenylsulfonyl)piperidin-4-yl)-2-oxo-2,3-dihydro-1H-imidazo[4,5-b]pyridin-1-yl)acetic acid] and `O=C(O)Cn1c(=O)n(C2CCN(S(=O)(=O)c3ccc(OC(F)(F)F)cc3)CC2)c2ncccc21` [Compound 42, 2-(2-oxo-3-(1-(4-(trifluoromethoxy)phenylsulfonyl)piperidin-4-yl)-2,3-dihydro-1H-imidazo[4,5-b]pyridin-1-yl)acetic acid] fall in the same range of IC50: 1 to 10 µM for the first, 1 to 10 µM for the second.

`O=C(O)Cn1c(=O)n(C2CCN(S(=O)(=O)c3ccc(F)c(F)c3)CC2)c2ncccc21` [Compound 40, 2-(3-(1-(3,4-difluorophenylsulfonyl)piperidin-4-yl)-2-oxo-2,3-dihydro-1H-imidazo[4,5-b]pyridin-1-yl)acetic acid] and `Cc1cccc(S(=O)(=O)N2CCC(n3c(=O)n(CC(=O)O)c4cccnc43)CC2)c1` [Compound 38, 2-(2-oxo-3-(1-(m-tolylsulfonyl)piperidin-4-yl)-2,3-dihydro-1H-imidazo[4,5-b]pyridin-1-yl)acetic acid] fall in the same range of IC50: 1 to 10 µM for the first, 1 to 10 µM for the second.

First: O=C(O)Cn1c(=O)n(C2CCN(S(=O)(=O)c3cccnc3)CC2)c2ncccc21 [Compound 68, 2-(2-oxo-3-(1-(pyridin-3-ylsulfonyl)piperidin-4-yl)-2,3-dihydro-1H-imidazo[4,5-b]pyridin-1-yl)acetic acid]
Second: COc1cccc(S(=O)(=O)N2CCC(n3c(=O)n(CC(=O)O)c4cccnc43)CC2)c1 [Compound 78, 2-(3-(1-(3-methoxyphenyl-sulfonyl)piperidin-4-yl)-2-oxo-2,3-dihydro-1H-imidazo[4,5-b]pyridin-1-yl)acetic acid]
The IC50 of the first is higher: 10 to 30 µM for the first, 1 to 10 µM for the second.

First: Cc1ccc(S(=O)(=O)NC2CCC(n3c(=O)n(CC(=O)O)c4cccnc43)CC2)c(F)c1 (centres unmarked) [Compound 107, 2-(3-(4-(2-fluoro-4-methylphenylsulfonamido)cyclohexyl)-2-oxo-2,3-dihydro-1H-imidazo[4,5-b]pyridin-1-yl)acetic acid]
Second: O=C(O)Cn1c(=O)n(C2CCN(S(=O)(=O)c3cc(F)c(Cl)cc3F)CC2)c2ncccc21 [Compound 91, 2-(3-(1-(4-chloro-2,5-difluoro-phenylsulfonyl)piperidin-4-yl)-2-oxo-2,3-dihydro-1H-imidazo[4,5-b]pyridin-1-yl)acetic acid]
The IC50 of the first is higher: 1 to 10 µM for the first, under 1 µM for the second.

First: O=C(O)Cn1c(=O)n(C2CCN(S(=O)(=O)C3CCCCC3)CC2)c2ncccc21 [Compound 34, 2-(3-(1-(cyclohexylsulfonyl)piperidin-4-yl)-2-oxo-2,3-dihydro-1H-imidazo [4,5-b]pyridin-1-yl)acetic acid]
Second: O=C(O)Cn1c(=O)n(C2CCN(S(=O)(=O)c3cc(Cl)ccc3Cl)CC2)c2ncccc21 [Compound 82, 2-(3-(1-(2,5-dichlorophenylsulfonyl)piperidin-4-yl)-2-oxo-2,3-dihydro-1H-imidazo[4,5-b]pyridin-1-yl)acetic acid]
The IC50 of the first is higher: 1 to 10 µM for the first, under 1 µM for the second.

`Cc1ccnc2c1n(CC(=O)O)c(=O)n2C1CCN(S(=O)(=O)c2ccc(Cl)cc2Cl)CC1` [Compound 122, 2-(3-(1-(2,4-dichlorophenylsulfonyl)piperidin-4-yl)-7-methyl-2-oxo-2,3-dihydro-1H-imidazo[4,5-b]pyridin-1-yl)acetic acid] and `O=C(O)Cn1c(=O)n(C2CCN(S(=O)(=O)c3ccc(F)cc3Cl)CC2)c2cccnc21` [Compound 132, 2-(1-(1-(2-chloro-4-fluorophenylsulfonyl)piperidin-4-yl)-2-oxo-1H-imidazo[4,5-b]pyridin-3(2H)-yl)acetic acid] cannot be ordered by IC50: over 30 µM for the first, over 30 µM for the second.

`Cc1ccc(S(=O)(=O)N2CCC(n3c(=O)n(CC(=O)O)c4cc(C)cnc43)CC2)c(F)c1` [Compound 124, 2-(3-(1-(2-fluoro-4-methylphenylsulfonyl)piperidin-4-yl)-6-methyl-2-oxo-2,3-dihydro-1H-imidazo[4,5-b]pyridin-1-yl)acetic acid] and `O=C(O)Cn1c(=O)n(C2CCN(S(=O)(=O)c3ccc4ccccc4c3)CC2)c2ncccc21` [Compound 59, 2-(3-(1-(naphthalen-2-ylsulfonyl)piperidin-4-yl)-2-oxo-2,3-dihydro-1H-imidazo[4,5-b]pyridin-1-yl)acetic acid] fall in the same range of IC50: 1 to 10 µM for the first, 1 to 10 µM for the second.

In the case of `O=C(O)Cn1c(=O)n(C2CCN(S(=O)(=O)c3ccc(-c4ccccc4)cc3)CC2)c2ncccc21` [Compound 81, 2-(3-(1-(biphenyl-4-ylsulfonyl)piperidin-4-yl)-2-oxo-2,3-dihydro-1H-imidazo[4,5-b]pyridin-1-yl)acetic acid], the IC50 is reported as 1 to 10 µM.
